The values below come from patent US10144706B2 (BRISTOL-MYERS SQUIBB COMPANY, priority 2016, dated 2018).

T1 sequence (Q9NZQ7 with tags, fused parts or gaps): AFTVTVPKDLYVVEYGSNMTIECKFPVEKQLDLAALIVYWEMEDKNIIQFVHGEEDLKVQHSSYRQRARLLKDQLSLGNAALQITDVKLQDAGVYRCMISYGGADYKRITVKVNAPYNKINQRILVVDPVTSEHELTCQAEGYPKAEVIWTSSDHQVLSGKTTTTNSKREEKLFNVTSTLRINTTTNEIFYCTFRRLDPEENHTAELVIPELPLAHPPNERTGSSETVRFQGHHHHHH

The experiment addresses T1, PD-1/PD-L1 interaction (PD-1-Ig / PD-L1-His) (Homo sapiens, UniProt Q9NZQ7).
T1 construct: hPDL1(18-239)-TVMV-His; TVMV protease site linker (C); made in house; host or cells: HEK293T
The experiment can be described thus: PD-1/PD-L1 Homogenous Time-Resolved Fluorescence (HTRF) binding assay. The settings on record: IC50 range class; PD-L1-His 10 nM, PD-1-Ig 20 nM; read-out: Range or IC50. In a few lines:
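HTRF detection used 1 nM europium-cryptate anti-Ig and 20 nM APC anti-His. Compounds first saw 10 nM PD-L1-His for 15 min, and 20 nM PD-1-Ig was then added for another 15 min. Buffer was dPBS plus 0.1% BSA and 0.05% Tween-20. All concentrations are final.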
In general terms: In TR-FRET formats the signal depends on donor and acceptor labels being close together.
With `Cc1c(COc2cc(OCc3ccc(-n4cccn4)nc3)c(CN(C)C(C)(C)C(=O)O)cc2Cl)cccc1-c1cccc(COc2cc(OCc3ccc(-n4cccn4)nc3)c(CN(C)C(C)(C)C(=O)O)cc2Cl)c1C` [Example 5024, 2,2′-((((((2,2′-dimethyl-[1,1′-biphenyl]-3,3′-diyl)bis(methylene))bis(oxy))bis(2-((6-(1H-pyrazol-1-yl)pyridin-3-yl)methoxy)-5-chloro-4,1-phenylene))bis(methylene))bis(methylazanediyl))bis(2-methylpropanoic acid)], the IC50 lay within 0.04 to 20 nM.
Next, `Cc1c(COc2cc(OCc3ccc(-n4cccn4)nc3)c(CN(C)[C@@H](CCO)C(=O)O)cc2Cl)cccc1-c1cccc(COc2cc(OCc3ccc(-n4cccn4)nc3)c(CN(C)[C@@H](CCO)C(=O)O)cc2Cl)c1C` [Example 5025, (2S,2′S)-2,2′-((((((2,2′-dimethyl-[1,1′-biphenyl]-3,3′-diyl)bis(methylene))bis(oxy))bis(2-((6-(1H-pyrazol-1-yl)pyridin-3-yl)methoxy)-5-chloro-4,1-phenylene))bis(methylene))bis(methylazanediyl))bis(4-hydroxybutanoic acid)]: 0.04 to 20 nM; `CCC[C@@H](C(=O)O)N(C)Cc1cc(Cl)c(OCc2cccc(-c3cccc(COc4cc(OCc5ccc(-n6cccn6)nc5)c(CN(C)[C@@H](CCC)C(=O)O)cc4Cl)c3C)c2C)cc1OCc1ccc(-n2cccn2)nc1` [Example 5026, (2S,2′S)-2,2′-((((((2,2′-dimethyl-[1,1′-biphenyl]-3,3′-diyl)bis(methylene))bis(oxy))bis(2-((6-(1H-pyrazol-1-yl)pyridin-3-yl)methoxy)-5-chloro-4,1-phenylene))bis(methylene))bis(methylazanediyl))dipentanoic acid]: 0.04 to 20 nM; `Cc1c(COc2cc(OCc3ccc(-n4cccn4)nc3)c(CN(C)[C@@](C)(CO)C(=O)O)cc2Cl)cccc1-c1cccc(COc2cc(OCc3ccc(-n4cccn4)nc3)c(CN(C)[C@@](C)(CO)C(=O)O)cc2Cl)c1C` [Example 5027, (2S,2′S)-2,2′-((((((2,2′-dimethyl-[1,1′-biphenyl]-3,3′-diyl)bis(methylene))bis(oxy))bis(2-((6-(1H-pyrazol-1-yl)pyridin-3-yl)methoxy)-5-chloro-4,1-phenylene))bis(methylene))bis(methylazanediyl))bis(3-hydroxy-2-methylpropanoic acid)]: 0.04 to 20 nM.
Regarding `Cc1c(COc2cc(OCc3ccc(-n4cccn4)nc3)c(CN(C)C(CO)CO)cc2Cl)cccc1-c1cccc(COc2cc(OCc3ccc(-n4cccn4)nc3)c(CN(C)C(CO)CO)cc2Cl)c1C` [Example 5028, 2,2′-((((((2,2′-dimethyl-[1,1′-biphenyl]-3,3′-diyl)bis(methylene))bis(oxy))bis(2-((6-(1H-pyrazol-1-yl)pyridin-3-yl)methoxy)-5-chloro-4,1-phenylene))bis(methylene))bis(methylazanediyl))bis(propane-1,3-diol)], the IC50 lay in the range of 90.1 to 1000 nM.
Next, `Cc1c(COc2cc(OCc3ccc(-n4cccn4)nc3)c(CN(C)[C@H](C(=O)O)[C@@H](C)O)cc2Cl)cccc1-c1cccc(COc2cc(OCc3ccc(-n4cccn4)nc3)c(CN(C)[C@H](C(=O)O)[C@@H](C)O)cc2Cl)c1C` [Example 5029, (2S,2′S,3R,3′R)-2,2′-((((((2,2′-dimethyl-[1,1′-biphenyl]-3,3′-diyl)bis(methylene))bis(oxy))bis(2-((6-(1H-pyrazol-1-yl)pyridin-3-yl)methoxy)-5-chloro-4,1-phenylene))bis(methylene))bis(methylazanediyl))bis(3-hydroxybutanoic acid)]: 20.1 to 90 nM; `COc1cc(OCc2cccc(-c3cccc(COc4cc(OCc5cncc(C#N)c5)c(CN(C)[C@@H](CCO)C(=O)O)cc4Cl)c3C)c2C)c(Cl)cc1CN(C)[C@@H](CCO)C(=O)O` [Example 5030, N-(4-((3′-((4-((((S)-1-carboxy-3-hydroxypropyl)(methyl)amino)methyl)-2-chloro-5-((5-cyanopyridin-3-yl)methoxy)phenoxy)methyl)-2,2′-dimethyl-[1,1′-biphenyl]-3-yl)methoxy)-5-chloro-2-methoxybenzyl)-N-methyl-L-homoserine]: 0.04 to 20 nM.
The figure for `COc1cc(OCc2cccc(-c3cccc(COc4cc(OCc5cncc(C#N)c5)c(CN(C)CCC(=O)O)cc4Cl)c3C)c2C)c(Cl)cc1CN(C)CCC(=O)O` [Example 5031, 3-((4-((3′-((4-(((2-carboxyethyl)(methyl)amino)methyl)-2-chloro-5-((5-cyanopyridin-3-yl)methoxy)phenoxy)methyl)-2,2′-dimethyl-[1,1′-biphenyl]-3-yl)methoxy)-5-chloro-2-methoxybenzyl)(methyl)amino)propanoic acid] is 0.04 to 20 nM; for `COc1cc(OCc2cccc(-c3cccc(COc4cc(OC)c(CNCc5cc[nH]n5)cc4Cl)c3C)c2C)c(Cl)cc1CNCc1cc[nH]n1` [Example 5032, 1,1′-((((2,2′-dimethyl-[1,1′-biphenyl]-3,3′-diyl)bis(methylene))bis(oxy))bis(5-chloro-2-methoxy-4,1-phenylene))bis(N-((1H-pyrazol-3-yl)methyl)methanamine)] it is 0.04 to 20 nM; for `COc1cc(OCc2cccc(-c3cccc(COc4cc(OC)c(CNCc5cncnc5)cc4Cl)c3C)c2C)c(Cl)cc1CNCc1cncnc1` [Example 5033, 1,1′-((((2,2′-dimethyl-[1,1′-biphenyl]-3,3′-diyl)bis(methylene))bis(oxy))bis(5-chloro-2-methoxy-4,1-phenylene))bis(N-(pyrimidin-5-ylmethyl)methanamine)] it is 0.04 to 20 nM.
Next, `COc1cc(OCc2cccc(-c3cccc(COc4cc(OC)c(CNCc5cncs5)cc4Cl)c3C)c2C)c(Cl)cc1CNCc1cncs1` [Example 5034, 1,1′-((((2,2′-dimethyl-[1,1′-biphenyl]-3,3′-diyl)bis(methylene))bis(oxy))bis(5-chloro-2-methoxy-4,1-phenylene))bis(N-(thiazol-5-ylmethyl)methanamine)]: 20.1 to 90 nM; `COc1cc(OCc2cccc(-c3cccc(COc4cc(OC)c(CNCCC(=O)O)cc4Cl)c3C)c2C)c(Cl)cc1CNCCC(=O)O` [Example 5035, 3,3′-((((((2,2′-dimethyl-[1,1′-biphenyl]-3,3′-diyl)bis(methylene))bis(oxy))bis(5-chloro-2-methoxy-4,1-phenylene))bis(methylene))bis(azanediyl))dipropionic acid]: 0.04 to 20 nM; `COc1cc(OCc2cccc(-c3cccc(COc4cc(OC)c(CN[C@@H](CCO)C(=O)O)cc4Cl)c3C)c2C)c(Cl)cc1CN[C@@H](CCO)C(=O)O` [Example 5036, (2S,2′S)-2,2′-((((((2,2′-dimethyl-[1,1′-biphenyl]-3,3′-diyl)bis(methylene))bis(oxy))bis(5-chloro-2-methoxy-4,1-phenylene))bis(methylene))bis(azanediyl))bis(4-hydroxybutanoic acid)]: 0.04 to 20 nM.
`COc1cc(OCc2cccc(-c3cccc(COc4cc(OC)c(CN(C)Cc5cc[nH]n5)cc4Cl)c3C)c2C)c(Cl)cc1CN(C)Cc1cc[nH]n1` [Example 5037, 1,1′-((((2,2′-dimethyl-[1,1′-biphenyl]-3,3′-diyl)bis(methylene))bis(oxy))bis(5-chloro-2-methoxy-4,1-phenylene))bis(N-((1H-pyrazol-3-yl)methyl)-N-methylmethanamine)]: the IC50 was in the range of 20.1 to 90 nM.
The figure for `COc1cc(OCc2cccc(-c3cccc(COc4cc(OC)c(CN(C)Cc5cncnc5)cc4Cl)c3C)c2C)c(Cl)cc1CN(C)Cc1cncnc1` [Example 5038, 1,1′-((((2,2′-dimethyl-[1,1′-biphenyl]-3,3′-diyl)bis(methylene))bis(oxy))bis(5-chloro-2-methoxy-4,1-phenylene))bis(N-methyl-N-(pyrimidin-5-ylmethyl)methanamine)] is 90.1 to 1000 nM; for `COc1cc(OCc2cccc(-c3cccc(COc4cc(OC)c(CN(C)Cc5cncs5)cc4Cl)c3C)c2C)c(Cl)cc1CN(C)Cc1cncs1` [Example 5039, 1,1′-((((2,2′-dimethyl-[1,1′-biphenyl]-3,3′-diyl)bis(methylene))bis(oxy))bis(5-chloro-2-methoxy-4,1-phenylene))bis(N-methyl-N-(thiazol-5-ylmethyl)methanamine)] it is 90.1 to 1000 nM.
Next, `Cc1cc(CN2CCCC[C@H]2C(=O)O)ccc1OCc1cccc(-c2cccc(COc3ccc(CN4CCCC[C@H]4C(=O)O)cc3C)c2C)c1C` [Example 5500, (2S,2′S)-1,1′-(((((2,2′-dimethyl-[1,1′-biphenyl]-3,3′-diyl)bis(methylene))bis(oxy))bis(3-methyl-4,1-phenylene))bis(methylene))bis(piperidine-2-carboxylic acid)]: 90.1 to 1000 nM; `Cc1cc(OCc2cccc(-c3cccc(COc4cc(C)c(CN5CCCC[C@H]5C(=O)O)cc4Cl)c3C)c2C)c(Cl)cc1CN1CCCC[C@H]1C(=O)O` [Example 5501, (2S,2′S)-1,1′-(((((2,2′-dimethyl-[1,1′-biphenyl]-3,3′-diyl)bis(methylene))bis(oxy))bis(5-chloro-2-methyl-4,1-phenylene))bis(methylene))bis(piperidine-2-carboxylic acid)]: 0.04 to 20 nM; `Cc1cc(OCc2cccc(-c3cccc(COc4cc(C)c(CNCCC(=O)O)cc4Cl)c3C)c2C)c(Cl)cc1CNCCC(=O)O` [Example 5502, 3,3′-((((((2,2′-dimethyl-[1,1′-biphenyl]-3,3′-diyl)bis(methylene))bis(oxy))bis(5-chloro-2-methyl-4,1-phenylene))bis(methylene))bis(azanediyl))dipropionic acid]: 0.04 to 20 nM.

Broadly, the IC50 is the concentration that inhibits the measured activity by half.
